Source: PMC4445981, “The glutamate transport inhibitor DL-Threo-β-Benzyloxyaspartic acid (DL-TBOA) differentially affects SN38- and oxaliplatin-induced death of drug-resistant colorectal cancer cells” (BMC Cancer, 2015)
Where two headings read alike, the source gives them in different places. Blank lines part the entries; values can stand above or below the compound they belong to.

Legend:
[1] = test system: [3H]-D-Asp uptake (glutamate transporter activity) in LoVo-SN38 cells; test: [3H]-D-Asp uptake assay, LoVo-SN38; assay type: cell-based, human
Procedure: (§1) We therefore next determined glutamate transporter activity (as uptake of the substrate [^3H]-D-Asp following a 6-min incubation in buffer supplemented with a tracer concentration of 100 nM [^3H]-D-Asp). […] To determine which transporter(s) was responsible for the [^3H]-D-Asp uptake, we assessed the effect of DL-TBOA, a nonselective inhibitor of EAATs, and UCPH-101, a specific SLC1A3 inhibitor [16, 28, 29]. […] Basal [^3H]-D-Asp uptake was decreased by about 60 % in SN38-resistant compared to parental HCT116 cells, whereas that in SN38-resistant LoVo cells was nearly tripled compared to parental LoVo cells.
(§2) The [^3H]-D-Asp uptake assay was performed essentially as in [30]. Briefly, cells were split into poly-D-lysine-coated white 96-well plates (PerkinElmer). A similar number of cells were seeded for HCT116 parental, HCT116-SN38 and HCT116-Oxa cell lines (7 × 10^4 cells/well) and LoVo parental, Lovo-SN38 and Lovo-Oxa cell lines (6 × 10^4 cells/well). 16–24 h later, culture medium was aspirated, and cells were washed once with 100 μl assay buffer (Hank’s Buffered Saline Solution supplemented with 20 mM HEPES, 1 mM CaCl2 and 1 mM MgCl2, pH 7.4). 50 μl assay buffer supplemented with 100 nM [^3H]-D-Asp and test compounds as indicated was added, and the plate was incubated at 37 °C for 6 min. Non-specific [^3H]-D-Asp uptake was determined in wells with 3 mM L-glutamate. The assay mixture was quickly removed, and wells were washed with 2 × 100 μl ice-cold assay buffer, followed by 150 μl Microscint™20 scintillation fluid (PerkinElmer). The plate was shaken for 1 h and counted in a Wallac 1450 MicroBeta Trilux scintillation counter (GMI, Ramsey, MN).

[2] = test system: [3H]-D-Asp uptake (glutamate transporter activity) in LoVo-PAR cells; test: [3H]-D-Asp uptake assay, LoVo-PAR; assay type: cell-based, human
Procedure: as §1, §2

[3] = test system: [3H]-D-Asp uptake in HCT116 and LoVo cells (parental and resistant); test: [3H]-D-Asp uptake assay, summary over cell lines; assay type: cell-based, human
Procedure: as §1, §2

[4] = test system: [3H]-D-Asp uptake (glutamate transporter activity) in HCT116-Oxa cells; test: [3H]-D-Asp uptake assay, HCT116-Oxa; assay type: cell-based, human
Procedure: as §1, §2

[5] = test system: [3H]-D-Asp uptake (glutamate transporter activity) in HCT116-PAR cells; test: [3H]-D-Asp uptake assay, HCT116-PAR; assay type: cell-based, human
Procedure: as §1, §2

[6] = test system: [3H]-D-Asp uptake (glutamate transporter activity) in HCT116-SN38 cells; test: [3H]-D-Asp uptake assay, HCT116-SN38; assay type: cell-based, human
Procedure: as §1, §2

[7] = test system: [3H]-D-Asp uptake (glutamate transporter activity) in LoVo-Oxa cells; test: [3H]-D-Asp uptake assay, LoVo-Oxa; assay type: cell-based, human
Procedure: as §1, §2

[8] = test system: SLC1A1; settings: at concentration up to > 400 fold higher than SLC1A3 IC50; cited from earlier work
[9] = test system: SLC1A3; settings: cited from earlier work
[10] = Homo sapiens, read-out: IC50, [3H]-D-Asp uptake
[11] = Homo sapiens, read-out: pIC50 ± S.E.M., [3H]-D-Asp uptake (converted)

IC50 [1, 10]: 28 µM
IC50 [1, 11]: 28.8 µM
IC50 [2, 10]: 26 µM
IC50 [2, 11]: 25.7 µM
IC50 [4, 10]: 21 µM
IC50 [4, 11]: 21.4 µM
IC50 [5, 10]: 21 µM
IC50 [5, 11]: 21.4 µM
IC50 [6, 10]: 21 µM
IC50 [6, 11]: 21.4 µM
IC50 [7, 10]: 23 µM
IC50 [7, 11]: 22.9 µM
SMILES: N[C@@H](CCC(=O)O)C(=O)O [L-Glu, L-glutamate]
IC50 ([3]; Homo sapiens, read-out: IC50 values, competitive inhibition of [3H]-D-Asp uptake): 20 to 30 µM

pIC50 ± S.E.M., [3H]-D-Asp uptake ([1]; LoVo-SN38, 100 nM [3H]-D-Asp, 6 min, 37 °C): < 4.0
IC50 ([1]; LoVo-SN38, 100 nM [3H]-D-Asp, 6 min, 37 °C, read-out: IC50, [3H]-D-Asp uptake): > 100 µM
pIC50 ± S.E.M., [3H]-D-Asp uptake ([2]; LoVo-PAR, 100 nM [3H]-D-Asp, 6 min, 37 °C): < 4.0
IC50 ([2]; LoVo-PAR, 100 nM [3H]-D-Asp, 6 min, 37 °C, read-out: IC50, [3H]-D-Asp uptake): > 100 µM
pIC50 ± S.E.M., [3H]-D-Asp uptake ([4]; HCT116-Oxa, 100 nM [3H]-D-Asp, 6 min, 37 °C): < 4.0
IC50 ([4]; HCT116-Oxa, 100 nM [3H]-D-Asp, 6 min, 37 °C, read-out: IC50, [3H]-D-Asp uptake): > 100 µM
pIC50 ± S.E.M., [3H]-D-Asp uptake ([5]; HCT116-PAR, 100 nM [3H]-D-Asp, 6 min, 37 °C): < 4.0
IC50 ([5]; HCT116-PAR, 100 nM [3H]-D-Asp, 6 min, 37 °C, read-out: IC50, [3H]-D-Asp uptake): > 100 µM
pIC50 ± S.E.M., [3H]-D-Asp uptake ([6]; HCT116-SN38, 100 nM [3H]-D-Asp, 6 min, 37 °C): < 4.0
IC50 ([6]; HCT116-SN38, 100 nM [3H]-D-Asp, 6 min, 37 °C, read-out: IC50, [3H]-D-Asp uptake): > 100 µM
pIC50 ± S.E.M., [3H]-D-Asp uptake ([7]; LoVo-Oxa, 100 nM [3H]-D-Asp, 6 min, 37 °C): < 4.0
IC50 ([7]; LoVo-Oxa, 100 nM [3H]-D-Asp, 6 min, 37 °C, read-out: IC50, [3H]-D-Asp uptake): > 100 µM
SMILES: COc1ccc(C2C(C#N)=C(N)OC3=C2C(=O)CC(c2cccc4ccccc24)C3)cc1 (stereo not shown) [UCPH]
activity at SLC1A1 [8]: inactive
effect on basal [3H]-D-Asp uptake ([3]; all cell lines, concentrations up to 100 μM): essentially unaffected
IC50 values for SLC1A3 [9]: high-nanomolar
